Experimental data: ChEMBL document CHEMBL1201862, “PubChem BioAssay data set” (2004)
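Five compound concentrations were applied to cells in 96-well plates for 48 hours; endpoints were derived by simple linear interpolation of the resulting dose-response curve. GI50: concentration for 50% inhibition of growth.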 Activity calls are given as the source filed them. Cut-off read from the data, not from the text of the source: active = GI50 up to about 1.1 µM and inactive = higher.

Experiments:
Experiment in all cases: growth of human tumour cells (NCI), 48 h
[1] = system: LOX IMVI
[2] = system: NCI/ADR-RES
[3] = system: HOP-62
[4] = system: CAKI-1
[5] = system: CCRF-CEM
[6] = system: M14
[7] = system: MOLT-4
[8] = system: TK-10
[9] = system: IGROV-1
[10] = system: HCT-116
[11] = system: UACC-62
[12] = system: K562
[13] = system: UO-31
[14] = system: A498
[15] = system: A549
[16] = system: SF-539
[17] = system: SN12C
[18] = system: 786-0
[19] = system: KM12
[20] = system: RXF 393

Measured: GI50

CCCC1C2=C(C(=O)OC2=O)C2C(CC)CC3=C(C(=O)OC3=O)C12 (stereo not drawn)
inactive: [1] > 100 µM | [2] > 100 µM | [3] > 100 µM | [4] > 100 µM | [5] > 100 µM | [6] > 100 µM | [7] > 100 µM | [8] > 100 µM | [9] > 100 µM | [10] > 100 µM | [11] > 100 µM | [12] > 100 µM | [13] > 100 µM | [14] > 100 µM | [15] > 100 µM | [16] > 100 µM | [17] > 100 µM | [18] > 100 µM | [19] > 100 µM

c1ccc2c(c1)c1c(n2CCOCCN2CCOCC2)CCCC1
inactive: [1] 20.2 µM | [2] 16.3 µM | [3] 26.3 µM | [4] 15.2 µM | [5] 21.8 µM | [6] 12.4 µM | [7] 25 µM | [8] 18.4 µM | [9] 36 µM | [10] 29.8 µM | [12] 33.6 µM | [13] 27.1 µM | [14] 34.1 µM | [15] 45.2 µM | [16] 86.1 µM | [17] > 10 µM | [18] > 10 µM | [19] 31.8 µM

NCCCN(CCCN(C(=O)Nc1ccccc1)c1ccccc1)C(=O)Nc1ccccc1
inactive: [20] 24.5 µM | [1] 23.5 µM | [2] 69.5 µM | [3] 25.1 µM | [5] 59.2 µM | [6] 19.4 µM | [7] 52 µM | [8] 38.4 µM | [9] 51.1 µM | [10] 18.6 µM | [11] 23.1 µM | [12] 34.9 µM | [13] 20.8 µM | [14] 87.1 µM | [15] 47.1 µM | [17] 64.9 µM | [18] 33 µM

c1ccc2c(c1)CC1c3[nH]c4ccccc4c3CCN21 (stereo not drawn)
inactive: [20] > 10 µM | [1] > 10 µM | [2] > 10 µM | [3] > 10 µM | [4] > 10 µM | [5] > 10 µM | [6] > 10 µM | [7] > 10 µM | [8] > 10 µM | [9] > 10 µM | [10] > 10 µM | [11] > 10 µM | [12] > 10 µM | [13] > 10 µM | [15] > 10 µM | [16] > 10 µM | [17] > 10 µM | [18] > 10 µM | [19] > 10 µM

CN(C)c1ccc(/C=C/C(=O)CC(=O)/C=C/c2ccc(N(C)C)cc2)cc1
inactive: [20] > 100 µM | [1] 15.7 µM | [2] > 100 µM | [3] > 100 µM | [4] > 100 µM | [5] > 100 µM | [6] > 100 µM | [7] > 100 µM | [8] > 100 µM | [9] > 100 µM | [10] 57.3 µM | [11] 56.4 µM | [12] > 100 µM | [13] > 100 µM | [15] > 100 µM | [16] > 100 µM | [17] > 100 µM | [18] > 100 µM | [19] > 100 µM

O=C1NN=C2C=C(c3ccc(Cl)cc3)CC(c3cccc(Br)c3)C12 (stereo not drawn)
inactive: [20] 62.8 µM | [1] 46.9 µM | [2] > 100 µM | [3] > 100 µM | [4] 23.4 µM | [5] 22 µM | [6] > 100 µM | [7] 43.9 µM | [8] 54.5 µM | [9] 51.3 µM | [10] 64.9 µM | [11] 87.3 µM | [12] 32.9 µM | [13] 42.8 µM | [15] 37.4 µM | [16] > 100 µM | [17] > 100 µM | [18] > 100 µM | [19] > 100 µM

O=C(NC(=S)Nc1ccc(Br)cc1)c1ccc2c(c1)Sc1ccccc1O2
inactive: [1] > 100 µM | [2] > 100 µM | [3] 79.8 µM | [5] > 100 µM | [6] > 100 µM | [7] > 100 µM | [8] 29.4 µM | [9] 49.3 µM | [10] > 100 µM | [11] 68.2 µM | [12] > 100 µM | [13] 31.1 µM | [14] 27.4 µM | [15] > 100 µM | [16] > 100 µM | [17] 95.7 µM | [18] 51.5 µM | [19] > 100 µM

Cc1n[nH]c(=O)n1/N=C/c1cccnc1
inactive: [1] > 100 µM | [2] > 100 µM | [3] > 100 µM | [4] > 100 µM | [5] > 100 µM | [6] > 100 µM | [7] > 100 µM | [8] > 100 µM | [9] > 100 µM | [10] > 100 µM | [11] > 100 µM | [12] > 100 µM | [13] > 100 µM | [14] > 100 µM | [15] > 100 µM | [16] > 100 µM | [17] > 100 µM | [18] > 100 µM | [19] > 100 µM
